From patent US8207167B2, “Aryl-phenyl-sulfonamide-phenylene compounds and their use” (PIMCO 2664 Limited, priority 2008, dated 2012)
Like-named read-outs stand apart in the source and are kept apart here.

What was measured:
[1] = Human liver microsomal stability assay; assay type: in vitro ADME; conditions: pooled human liver microsomes 0.5 mg/mL, test compound 3 μM, 45 minute incubation, NADPH
Description: Initial screening of candidate compounds was performed using in vitro assays to determine potency, metabolic stability and solubility in biologically relevant fluids. Potency was assessed using a viability assay based on the survival of the J774 macrophage cell line. Macrophages are closely related to osteoclasts and have been used previously as a model system for osteoclast survival (see, e.g., Luckman et al., 1998). Like osteoclasts, J774 macrophages are dependent on continued NFκB activation for survival, thereby providing a valuable screen for compounds with anti-inflammatory activity. Metabolic stability was measured by determining the rate of disappearance of compound in the presence of human liver microsomal preparations, as quantified by LC-MS/MS. Solubility was measured by equilibration of the compound in fasted state simulated intestinal fluid (FaSSIF) and quantified by HPLC.
Metabolic stability of APSAP derivatives was measured by determination of the rate of compound disappearance when incubated in the presence of human liver microsomes. Liver microsomes are prepared from the endoplasmic reticulum of hepatocytes and are the primary source of the most important enzymes (cytochrome P450) involved in drug metabolism. Study of drug stability in the presence of liver microsomes is accepted as a valuable model permitting rapid prediction of in vivo drug stability.
Human liver microsomes were obtained from a commercial source. Test compounds (3 μM) were incubated with pooled liver microsomes (male and female). Samples were incubated for a 45 minute period and removed at 5 time points and test compounds were analysed by LC-MS/MS.
The final incubation volume was 25 μL. A control incubation was included for each compound tested, where 0.1 M phosphate buffer pH 7.4 was added instead of NADPH. The control compounds testosterone and 7-hydroxycoumarin were included in each experiment and all incubations were performed singularly for each compound.
Each compound was incubated for 0, 5, 15, 30, and 45 minutes. The control (minus NADPH) was incubated for 45 minutes only. The reactions were stopped by the addition of 50 μL methanol containing internal standard at the appropriate time points. The incubation plates were centrifuged at 2500 rpm for 20 minutes at 4° C. to precipitate the protein.
Following protein precipitation, the sample supernatants were combined in cassettes of up to 4 compounds and analysed using standard LC-MS/MS conditions.
From a plot of the natural logarithm of the peak area ratio (i.e., the ratio of compound peak area:internal standard peak area) against time, the gradient of the line was determined. Subsequently, half-life and intrinsic clearance were calculated using the equations below: Eliminated rate constant(k)=(−gradient). […] Intrinsic Clearance(CLint)([…])=(V×0.693)/t1/2. wherein V=Incubation volume(μL/mg microsomal protein). Pharmacokinetics Studies

[2] = In vivo pharmacokinetics in rat, oral and intravenous; set-up: species or system Sprague-Dawley rats; conditions: 1 mg/kg
Description: Absorption and metabolic stability were studied using an in vivo pharmacokinetics assay. Drug levels were assessed using ultra-performance LC/TOF-MS.
Three male Sprague-Dawley rats, 200-300 g, were dosed per route. […] Test compound was formulated in 50:50 tetraethylene glycol:PBS for both routes. Animals were given free access to food throughout the study. On the day prior to dosing, the carotid artery was cannulated for sample collection and for the intravenous study, the jugular vein was cannulated to enable dosing.
Blood samples were taken from the carotid artery at the following time points and placed in heparinised tubes:
Oral dosing—predose, 0.25, 0.5, 1, 2, 4, 8 and 24 hours post dose.
IV dosing—predose, 0.08, 0.25, 0.5, 1, 2, 4 and 8 hours post dose.
Blood samples were centrifuged to obtain plasma, which was transferred to a separate container and frozen at −20° C.
Samples were thawed at room temperature and prepared by protein precipitation with acetonitrile in the ratio 1:2 with plasma, followed by centrifugation for 10 minutes at 16,100×g (Eppendorf 5415D, Eppendorf AG, Hamburg, Germany). The supernatants were collected for analysis. The standard samples were prepared similarly, after spiking blank rat plasma samples to study compound concentrations at 1, 2, 5, 10, 20, 50, 100, 200, 500 and 1000 ng/mL. In addition, extra samples were prepared from 0-1 hour i.v. samples by diluting 1/20 with 50% aqueous acetonitrile to avoid exceeding the linear range of the analytical method.
A Waters Acquity liquid ultra-performance chromatographic system (Waters Corp., Milford, Mass., USA) with autosampler, vacuum degasser and column oven was used. The analytical column used for all compounds was a Waters BEH C18, (2.1×50 mm, 1.7 μm, Waters Corp, Milford, Mass., USA) together with a 0.2 μm on-line filter before the column. The eluents were 0.1% acetic acid (A, pH 3.2) and methanol (B). Gradient elution from 5% to 60% B in two minutes was employed, followed by one minute gradient to 90% B and column equilibration. The flow rate was 0.5 mL/min and the column oven temperature was 35° C. The flow was directed to the MS via Water Acquity photo-diode-array (PDA) detector. LC/TOF-MS data were recorded with a Micromass LCT Premier XE time-of-flight (TOF) mass spectrometer (Micromass Ltd., Manchester, England) equipped with a LockSpray electrospray ionization source. A positive ionization mode of electrospray was used for all compounds. The mass range of m/z 100-900 was acquired. The W-option of the reflector was used, and the DRE (dynamic range enhancement) option was set to on. The mass spectrometer and HPLC system were operated under Micromass MassLynx 4.1 software. Leucine enkephalin ([M+H]^+ m/z 556.2771) was used as a lock mass compound for accurate mass measurements and was delivered into the LockSpray probe with a syringe pump. MassLynx 4.1 software was used for controlling the instrumentation and for data processing.
The pharmacokinetic parameters for the test compounds were calculated by WinNonlin Pro (Pharsight Corp, CA) using standard noncompartmental methods. The elimination phase half-life (t1/2) was calculated by least-squares regression analysis of the terminal linear part of the log concentration−time curve. The area under the plasma concentration−time curve (AUC) was determined by use of the linear trapezoidal rule up to the last measurable concentration and thereafter by extrapolation of the terminal elimination phase to infinity. The tentative oral bioavailability (F) was calculated by dividing the AUC (0-24 hours) after p.o. administration by the AUC (0-8 hours) after i.v. administration, i.e., F=AUC(p.o.)/AUC(i.v), and reported as percentages (%).

What does the source list for CNC(CO)c1cccc(NS(=O)(=O)c2ccc(-c3ccc(F)cc3F)cc2)c1 (stereo not shown) [ABD789, 2′,4′-Difluoro-N-(3-(2-hydroxy-1-(methylamino)ethyl)phenyl)biphenyl-4-sulfonamide]?
T1/2 [1]: Stable; AUC ([2]; i.v.): 11900 ng/mL/min; half-life ([2]; male, Sprague-Dawley, plasma, iv, i.v., read-out: T½ (converted)): 0.81 h; bioavailability ([2]; male, Sprague-Dawley, plasma, oral, read-out: Bioavailability F %): 38%; half-life ([2]; male, Sprague-Dawley, plasma, po, following oral administration, read-out: extended half life (converted)): 7.67 h; half-life ([2]; male, Sprague-Dawley, plasma, po, p.o., read-out: T½ (converted)): 3.17 h; AUC ([2]; p.o.): 1500 ng/mL/min
